Measured values published in US11051515B2, “3-acyl-benzamides and their use as herbicides” (Bayer Aktiengesellschaft, priority 2017, dated 2021).

What was measured:
VIOTR = assay: Post-emergence action against VIOTR; format: in vivo, Viola tricolor; details: for pest or weed control at 80 g/ha: Viola tricolor, 504 h, post-emergence, dosage 80 g/ha; for Herbicidal efficacy against VIOTR: Table V16, post-emergence
Outline: (§1)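 Weeds grown in sandy loam in greenhouse, treated at one-leaf stage (2–3 weeks after sowing) with WP or EC formulations sprayed as aqueous suspension/emulsion at 600 to […] water with 0.2% wetting agent. Visual rating after about 3 weeks versus untreated controls, as % herbicidal action (100% = plants dead, 0% = like control).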

ABUTH = assay: Pre-emergence action against ABUTH; format: in vivo, Abutilon theophrasti; details: for pest or weed control at 320 g/ha: Abutilon theophrasti, 504 h, pre-emergence, dosage 320 g/ha, scored visually after 3 weeks vs untreated controls, read-out: Pre-emergence action against ABUTH (herbicidal activity)
Outline: (§2)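 Seeds sown in sandy loam in wood-fiber pots and covered with soil. Greenhouse growth; visual damage scored after 3 weeks versus untreated controls (100% = dead, 0% = like control).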

MATIN [1] = assay: Pre-emergence action against MATIN; format: in vivo, Matricaria inodora; details: for pest or weed control at 320 g/ha: Tripleurospermum inodorum, 504 h, Dosage 320 g/ha, pre-emergence
Outline: as §2

LOLMU [2] = assay: Pre-emergence action against LOLMU; format: in vivo, Lolium multiflorum; details: Lolium multiflorum, 504 h, dosage 320 g/ha, scored visually after 3 weeks vs untreated controls, read-out: Pre-emergence action against LOLMU (herbicidal activity)
Outline: as §2

MATIN [3] = assay: Post-emergence action against MATIN; format: in vivo, Matricaria inodora; details: for pest or weed control at 80 g/ha: Tripleurospermum inodorum, 504 h, post-emergence, dosage 80 g/ha, visual assessment about 3 weeks after treatment vs untreated controls, read-out: Post-emergence action against MATIN (herbicidal action in percent)
Outline: as §1

PHBPU = assay: Post-emergence action against PHBPU; format: in vivo, Pharbitis purpurea; details: for pest or weed control at 80 g/ha: Ipomoea purpurea, 504 h, post-emergence, dosage 80 g/ha; for Herbicidal efficacy against PHBPU: Table V16, post-emergence
Outline: as §1

CYPES = assay: Post-emergence action against CYPES; format: in vivo, Cyperus esculentus; details: for pest or weed control at 80 g/ha: Cyperus esculentus, 504 h, post-emergence, dosage 80 g/ha, visual assessment about 3 weeks after treatment vs untreated controls, read-out: Post-emergence action against CYPES (herbicidal action in percent)
Outline: as §1

ECHCG = assay: Post-emergence action against ECHCG; format: in vivo, Echinochloa crus-galli; details: for pest or weed control at 80 g/ha: Echinochloa crus-galli, 504 h, post-emergence, dosage 80 g/ha, visual assessment about 3 weeks after treatment vs untreated controls, read-out: Post-emergence action against ECHCG (herbicidal action in percent); for Herbicidal efficacy against ECHCG: Table V16, post-emergence
Outline: as §1

LOLMU [4] = assay: Post-emergence action against LOLMU; format: in vivo, Lolium multiflorum; details: Lolium multiflorum, 504 h, dosage 80 g/ha, visual assessment about 3 weeks after treatment vs untreated controls, read-out: Post-emergence action against LOLMU (herbicidal action in percent)
Outline: as §1

LOLRI [5] = assay: Pre-emergence action against LOLRI; format: in vivo, Lolium rigidum; details: Lolium rigidum, 504 h, dosage 320 g/ha, scored visually after 3 weeks vs untreated controls, read-out: Pre-emergence action against LOLRI (herbicidal activity)
Outline: as §2

HORMU [6] = assay: Pre-emergence action against HORMU; format: in vivo, Hordeum murinum; details: Hordeum murinum, 504 h, Dosage 320 g/ha
Outline: as §2

LOLRI [7] = assay: Post-emergence action against LOLRI; format: in vivo, Lolium rigidum; details: Lolium rigidum, 504 h, dosage 80 g/ha, visual assessment about 3 weeks after treatment vs untreated controls, read-out: Post-emergence action against LOLRI (herbicidal action in percent)
Outline: as §1

HORMU [8] = assay: Post-emergence action against HORMU; format: in vivo, Hordeum murinum; details: dosage 80 g/ha
Procedure: Seeds of monocotyledonous and dicotyledonous weed and crop plants are laid out in sandy loam soil in wood-fiber pots, covered with soil and cultivated in a greenhouse under good growth conditions. 2 to 3 weeks after sowing, the test plants are treated at the one-leaf stage. The compounds of the invention, formulated in the form of wettable powders (WP) or as emulsion concentrates (EC), are then sprayed onto the green parts of the plants in the form of an aqueous suspension or emulsion at a water application rate equating to […], with addition of 0.2% wetting agent. After the test plants have been left to stand in the greenhouse under optimal growth conditions for about 3 weeks, the action of the preparations is assessed visually in comparison to untreated controls (herbicidal action in percent (%): 100% activity=the plants have died, 0% activity=like control plants). […] At the same time, inventive compounds leave Gramineae crops such as barley, wheat, rye, millet/Sorghum, corn or rice virtually undamaged when applied post-emergence, even at high active ingredient dosages. In addition, some substances are also harmless to dicotyledonous crops such as soya, cotton, oilseed rape, sugar beet or potatoes. Some of the compounds according to the invention have high selectivity and are therefore suitable for controlling unwanted vegetation in agricultural crops by the post-emergence method. The data of Tables B18 to B34 below illustrate, in an exemplary manner, the […] herbicidal action of the compounds according to the invention, the herbicidal activity being stated in percent.

[9] = Table V3, pre-emergence, 80 g of a.i./ha
[10] = Table V15, post-emergence, 5 g of a.i./ha
[11] = Table V4, pre-emergence, 20 g of a.i./ha

| SMILES | pest or weed control at 80 g/ha (VIOTR) | pest or weed control at 320 g/ha (ABUTH) | pest or weed control at 320 g/ha (MATIN [1]) | pest or weed control at 320 g/ha (LOLMU [2]) | pest or weed control at 80 g/ha (MATIN [3]) | pest or weed control at 80 g/ha (PHBPU) | pest or weed control at 80 g/ha (CYPES) | pest or weed control at 80 g/ha (ECHCG) | pest or weed control at 80 g/ha (LOLMU [4]) | Herbicidal efficacy against ABUTH (ABUTH; [9]) | Herbicidal efficacy against MATIN (MATIN [1]; [9]) | pest or weed control at 320 g/ha (LOLRI [5]) | pest or weed control at 320 g/ha (HORMU [6]) | pest or weed control at 80 g/ha (LOLRI [7]) | Post-emergence action against HORMU (HORMU [8]) | also measured |
| --- | --- | --- | --- | --- | --- | --- | --- | --- | --- | --- | --- | --- | --- | --- | --- | --- |
| COc1c(C(=O)Nc2nnnn2C)ccc(C(F)(F)F)c1C(=O)C1CC1 [1-50] | 100% | 100% | 100% | 100% | 100% | 100% | 80% | 90% | 90% | – | – | – | – | – | – | – |
| Cn1nnnc1NC(=O)c1ccc(S(C)(=O)=O)c(C(=O)C2CC2)c1Cl [1-129] | 100% | 100% | 100% | 100% | 90% | 100% | 80% | 90% | 80% | 100 | 100 | – | – | – | – | MATIN (MATIN [1]; Table V2, pre-emergence, 20 g of a.i./ha): 90; Herbicidal efficacy against MATIN (MATIN [3]; [10]): 80; Herbicidal efficacy against CYPES (CYPES; [10]): 60 |
| CCn1nnnc1NC(=O)c1ccc(C(F)(F)F)c(C(=O)C2CC2)c1C [2-18, 3-(cyclopropylcarbonyl)-N-(1-ethyl-1H-tetrazol-5-yl)-2-methyl-4-(trifluoromethyl)benzamide] | 100% | 100% | 100% | – | 100% | 100% | 90% | 100% | – | – | – | 100% | 100% | 100% | 100 | – |
| CSc1c(C(=O)Nc2nnnn2C)ccc(C(F)(F)F)c1C(=O)C1CC1 [1-60] | 90% | 100% | 100% | – | 100% | 90% | 90% | 100% | – | – | – | 100% | 100% | 100% | 100 | – |
| Cn1nnnc1NC(=O)c1ccc(C(F)(F)F)c(C(=O)C2CC2)c1Cl [1-141] | 100% | 100% | 100% | 100% | 90% | 100% | 90% | 100% | 100% | – | – | – | – | – | – | – |
| CC(=O)c1c(S(C)(=O)=O)ccc(C(=O)Nc2nnnn2C)c1Cl [1-127] | 100% | 100% | 100% | 80% | 100% | 100% | 80% | 100% | – | 100 | 90 | – | – | – | – | Herbicidal efficacy against VIOTR (VIOTR; 5 g of a.i./ha): 100; Herbicidal efficacy against VIOTR (VIOTR; 20 g of a.i./ha): 100; Herbicidal efficacy against ABUTH (ABUTH; [11]): 90; Herbicidal efficacy against MATIN (MATIN [1]; [11]): 70; Herbicidal efficacy against MATIN (MATIN [3]; Table V14, post-emergence, 5 g of a.i./ha): 90; Herbicidal efficacy against MATIN (MATIN [3]; Table V16, post-emergence, 5 g of a.i./ha): 90; Herbicidal efficacy against MATIN (MATIN [3]; Table V16, post-emergence, 20 g of a.i./ha): 100; Herbicidal efficacy against PHBPU (PHBPU; 5 g of a.i./ha): 70; Herbicidal efficacy against PHBPU (PHBPU; 20 g of a.i./ha): 100; Herbicidal efficacy against ECHCG (ECHCG; 5 g of a.i./ha): 100; Herbicidal efficacy against ECHCG (ECHCG; 20 g of a.i./ha): 100 |
